In patent US7326732B2, “EP2 receptor agonists” (Pharmagene Laboratories Limited, priority 2004, dated 2008):

Tests used:
human EP3 receptor = molecular target: T1, human EP3 receptor (Homo sapiens, UniProt P43115); assay: Binding ability to human EP receptors ([3H]PGE2 displacement), EP3; settings: membranes expressing human EP3; [3H]PGE2 2.5 nM; Cheng-Prusoff; read-out: pKi (M) EP3 (converted)
T1 construct: expressed in transfected cells
T1 sequence (P43115 1-390): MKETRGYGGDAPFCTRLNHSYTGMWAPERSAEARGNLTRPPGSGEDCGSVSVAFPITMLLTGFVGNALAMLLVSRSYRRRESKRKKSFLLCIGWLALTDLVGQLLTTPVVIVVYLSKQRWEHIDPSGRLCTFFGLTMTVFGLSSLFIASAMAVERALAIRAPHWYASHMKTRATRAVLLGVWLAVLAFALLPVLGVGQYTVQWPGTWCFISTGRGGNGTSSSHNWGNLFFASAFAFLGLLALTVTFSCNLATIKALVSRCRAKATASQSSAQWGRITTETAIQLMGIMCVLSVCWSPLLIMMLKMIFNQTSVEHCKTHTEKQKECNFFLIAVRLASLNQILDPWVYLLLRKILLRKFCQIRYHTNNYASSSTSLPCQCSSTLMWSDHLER
Procedure: (§1) Membranes were prepared from cells stably transfected with human EP receptor cDNA. In brief, cells were cultured to confluency, scraped from culture flasks, and centrifuged (800 g, 8 minutes, 4° C.). Cells were twice washed in ice cold homogenisation buffer containing 10 mMTris-HCl, 1 mM EDTA.2Na, 250 mM sucrose, 1 mM PMSF, 0.3 mM indomethacin, pH 7.4, homogenised and re-centrifuged as before. The supernatant was stored on ice and pellets re-homogenised and re-spun. Supernatants were pooled and centrifuged at 40000 g, 10 minutes, 4° C. Resultant membrane pellets were stored at −80° C. until use. For assay, membranes expressing human EP4, EP3, EP2 or EP1 receptors were incubated in Millipore (MHVBN45) plates containing assay buffer, radiolabelled [^3H]PGE2 and 0.1 to 10 000 nM concentrations of compounds. Incubations were performed at suitable temperatures and for suitable times to allow equilibrium to be reached. Non-specific binding was determined in the presence of 10 uM PGE2. Bound and free radiolabel was separated by vacuum manifold filtration using appropriate wash buffers, and bound radiolabel was determined by scintillation counting. Constituents of each of the buffers are included in table 1 below. […] Raven Press, New York, 2nd edition.

human EP4 receptor = molecular target: T2, human EP4 receptor (Homo sapiens, UniProt P35408); assay: Binding ability to human EP receptors ([3H]PGE2 displacement), EP4; settings: membranes expressing human EP4; [3H]PGE2 1 nM; Cheng-Prusoff; read-out: pKi (M) EP4 (converted)
T2 construct: expressed in transfected cells
Procedure: as §1

human EP2 receptor = molecular target: T3, human EP2 receptor (Homo sapiens, UniProt P43116); assay: Binding ability to human EP receptors ([3H]PGE2 displacement), EP2; settings: membranes expressing human EP2; [3H]PGE2 3 nM; Cheng-Prusoff; read-out: pKi (M) EP2 (converted)
T3 construct: expressed in transfected cells
Procedure: as §1

[1] = molecular target: T4, human EP2 prostanoid receptors (Homo sapiens, UniProt P43116); assay: Agonist activity at recombinant human EP2 prostanoid receptors (cAMP in HEK-293 clones); format: cell-based; settings: for EC50: HEK-293 stably transfected with human EP2, cAMP accumulation, read-out: pEC50 EP2 (converted); for activity (EP2 part): functional classification at EP2
T4 construct: expressed in transfected cells; host or cells: HEK-293
Procedure: Culture media was Minimal essential media (MEM), supplemented with 10% foetal bovine serum, 100 U/ml penicillin, […] streptomycin, 2.5 μg/ml fungizone, 2mM glutamine. Cells were cultured to confluency (3-4 days) prior to use. Culture media was removed, and confluent cells washed three times in MEM. […] Cells were then stimulated by the addition of 25 μl of PGE2 or agonists prepared in assay buffer. In antagonist studies, cells were pre-incubated with compounds for 30 minutes prior to PGE2-mediated stimulation Plates were incubated for 15 min at 37° C., before termination of the reaction by the addition of 25 μl 1M HCl. The plate was then frozen at -20° C. overnight before determination of cAMP concentration. Stimulated cAMP levels were determined by radioligand displacement binding. In brief, plates were thawed rapidly in a waterbath, and the samples neutralised by the addition of 25 μl 1M NaOH. 30 μl was transferred to Millipore plates pre-coated with 0.5% Polyethylenimine (PEI). Samples were diluted by addition of 90 μl cAMP determination buffer (50 mM Tris, 5 mM EDTA, pH 7.0). […] 15 μl of 2 nM (final concentration) [^3H] cAMP, and 15 μl of 3'5'-cAMP protein kinase (8 μg/well final concentration) prepared in cAMP determination buffer containing 0.1% BSA, were added to each well. Plates were incubated on ice for 2 hours, before bound and free radiolabel were separated by vacuum filtration harvesting using the Millipore vacuum manifold, using ice cold water as the termination buffer. The sealing mat was removed from the Millipore plates, and the filters allowed to dry overnight. 50 μl Microscint 0 (Packard Bioscience) was added to each well, and the plate counted using the Micro-Beta Trilux topcount ^3H program. cAMP accumulation was determined from the standard curve, and values calculated in pmoles cAMP/well. Antagonists affinities (pA2 values) were determined assuming a slope of unity and the […]-Schild equation, where pA2=log [concentration ratio-1]-log[antagonist].

T4 sequence (P43116 whole entry): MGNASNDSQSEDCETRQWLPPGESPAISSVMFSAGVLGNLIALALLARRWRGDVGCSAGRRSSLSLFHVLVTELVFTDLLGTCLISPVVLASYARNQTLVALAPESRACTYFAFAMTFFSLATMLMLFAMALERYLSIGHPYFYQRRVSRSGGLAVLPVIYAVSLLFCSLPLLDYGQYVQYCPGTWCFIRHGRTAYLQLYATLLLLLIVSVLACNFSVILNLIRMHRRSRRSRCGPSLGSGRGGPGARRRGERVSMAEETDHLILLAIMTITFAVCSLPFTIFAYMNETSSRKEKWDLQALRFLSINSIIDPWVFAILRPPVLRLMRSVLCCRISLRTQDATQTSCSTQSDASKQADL
T3 sequence (P43116 whole entry): as above
T2 sequence (P35408 whole entry): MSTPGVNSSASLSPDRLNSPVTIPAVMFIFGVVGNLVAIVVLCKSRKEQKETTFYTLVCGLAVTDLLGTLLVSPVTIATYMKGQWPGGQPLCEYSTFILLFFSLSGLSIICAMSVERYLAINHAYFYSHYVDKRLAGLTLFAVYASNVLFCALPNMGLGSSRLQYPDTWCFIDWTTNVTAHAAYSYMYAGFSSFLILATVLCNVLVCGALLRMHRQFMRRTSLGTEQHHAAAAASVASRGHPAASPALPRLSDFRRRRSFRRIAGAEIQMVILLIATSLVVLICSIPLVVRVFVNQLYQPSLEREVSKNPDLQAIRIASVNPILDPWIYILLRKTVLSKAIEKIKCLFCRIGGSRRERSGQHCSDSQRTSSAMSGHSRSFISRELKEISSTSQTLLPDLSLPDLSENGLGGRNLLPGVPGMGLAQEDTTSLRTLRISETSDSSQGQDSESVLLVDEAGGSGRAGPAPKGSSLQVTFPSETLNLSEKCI

## O=C(O)Cc1cccc(NC(=O)c2ccc(-c3ccccc3)o2)c1 [Compound 10, (3-{[5-(phenyl)-furan-2-carbonyl]-amino}-phenyl)-acetic acid]
Human EP3 receptor
  Ki: > 1e-05 M
Human EP4 receptor
  Ki: > 1e-05 M
Human EP2 receptor
  Ki: < 1e-06 M
[1]
  EC50: < 1 µM
  activity (EP2 part): EP2 agonist

## COc1ccc(-c2ccc(C(=O)Nc3cccc(CC(=O)O)c3)o2)cc1 [Compound 12, (3-[(5-(4-Methoxy-phenyl)-furan-2-carbonyl)-amino]-phenyl)-acetic acid]
Human EP3 receptor
  Ki: > 1e-05 M
Human EP4 receptor
  Ki: > 1e-05 M
Human EP2 receptor
  Ki: < 1e-06 M
[1]
  EC50: < 1 µM
  activity (EP2 part): EP2 agonist

## CN(C)c1ccc(-c2ccc(C(=O)Nc3cccc(CC(=O)O)c3)o2)cc1 [Compound 14, (3-[(5-(4-Dimethylamino-phenyl)-furan-2-carbonyl)-amino]-phenyl)-acetic acid]
Human EP3 receptor
  Ki: > 1e-05 M
Human EP4 receptor
  Ki: > 1e-05 M
Human EP2 receptor
  Ki: < 1e-06 M
[1]
  EC50: < 10 µM
  activity (EP2 part): EP2 agonist

## COc1ccccc1-c1ccc(C(=O)Nc2cccc(CC(=O)O)c2)o1 [Compound 17, (3-{[5-(2-Methoxy-phenyl)-furan-2-carbonyl]-amino}-phenyl)-acetic acid]
Human EP3 receptor
  Ki: > 1e-05 M
Human EP4 receptor
  Ki: > 1e-05 M
Human EP2 receptor
  Ki: < 1e-06 M
[1]
  EC50: < 1 µM
  activity (EP2 part): EP2 agonist

## COc1cccc(-c2ccc(C(=O)Nc3cccc(CC(=O)O)c3)o2)c1 [Compound 18, (3-{[5-(3-Methoxy-phenyl)-furan-2-carbonyl]-amino}-phenyl)-acetic acid]
Human EP3 receptor
  Ki: > 1e-05 M
Human EP4 receptor
  Ki: > 1e-05 M
Human EP2 receptor
  Ki: < 1e-06 M
[1]
  EC50: < 1 µM
  activity (EP2 part): EP2 agonist

## CC(=O)c1cccc(-c2ccc(C(=O)Nc3cccc(CC(=O)O)c3)o2)c1 [Compound 19, (3-{[5-(3-Acetyl-phenyl)-furan-2-carbonyl]-amino}-phenyl)-acetic acid]
Human EP3 receptor
  Ki: > 1e-05 M
Human EP4 receptor
  Ki: > 1e-05 M
Human EP2 receptor
  Ki: < 1e-06 M
[1]
  EC50: < 10 µM
  activity (EP2 part): EP2 agonist

## CC(=O)c1ccc(-c2ccc(C(=O)Nc3cccc(CC(=O)O)c3)o2)cc1 [Compound 20, (3-{[5-(4-Acetyl-phenyl)-furan-2-carbonyl]-amino}-phenyl)-acetic acid]
Human EP3 receptor
  Ki: > 1e-05 M
Human EP4 receptor
  Ki: > 1e-05 M
Human EP2 receptor
  Ki: < 1e-06 M
[1]
  EC50: < 10 µM
  activity (EP2 part): EP2 agonist

## Cc1cccc(-c2ccc(C(=O)Nc3cccc(CC(=O)O)c3)o2)c1 [Compound 21, (3-{[5-(3-Methyl-phenyl)-furan-2-carbonyl]-amino}-phenyl)-acetic acid]
Human EP3 receptor
  Ki: > 1e-05 M
Human EP4 receptor
  Ki: > 1e-05 M
Human EP2 receptor
  Ki: < 1e-06 M
[1]
  EC50: < 1 µM
  activity (EP2 part): EP2 agonist

## O=C(O)Cc1cccc(NC(=O)c2ccc(-c3ccc(Cl)c(Cl)c3)o2)c1 [Compound 27, (3-{[5-(3,4-Dichloro-phenyl)-furan-2-carbonyl]-amino}-phenyl)-acetic acid]
Human EP3 receptor
  Ki: > 1e-05 M
Human EP4 receptor
  Ki: > 1e-05 M
Human EP2 receptor
  Ki: < 1e-07 M
[1]
  EC50: < 0.1 µM
  activity (EP2 part): EP2 agonist

## O=C(O)Cc1cccc(NC(=O)c2ccc(-c3ccccc3Cl)o2)c1 [Compound 30, (3-{[5-(2-Chloro-phenyl)-furan-2-carbonyl]-amino}-phenyl)-acetic acid]
Human EP3 receptor
  Ki: > 1e-05 M
Human EP4 receptor
  Ki: > 1e-05 M
Human EP2 receptor
  Ki: < 1e-05 M
[1]
  EC50: < 1 µM
  activity (EP2 part): EP2 Agonist

## O=C(O)Cc1cccc(NC(=O)c2ccc(-c3cccc4ccccc34)o2)c1 [Compound 31, {3-[(5-Naphthalen-1-yl-furan-2-carbonyl)-amino]-phenyl}-acetic acid]
Human EP3 receptor
  Ki: > 1e-05 M
Human EP4 receptor
  Ki: < 1e-06 M
Human EP2 receptor
  Ki: < 1e-06 M
[1]
  EC50: < 1 µM
  activity (EP2 part): EP2 agonist

## CC(C)c1cccc(-c2ccc(C(=O)Nc3cccc(CC(=O)O)c3)o2)c1 [Compound 34, (3-{[5-(3-Isopropyl-phenyl)-furan-2-carbonyl]-amino}-phenyl)-acetic acid]
Human EP3 receptor
  Ki: > 1e-05 M
Human EP4 receptor
  Ki: < 1e-06 M
Human EP2 receptor
  Ki: < 1e-06 M
[1]
  EC50: < 1 µM
  activity (EP2 part): EP2 agonist

## O=C(O)Cc1cccc(NC(=O)c2ccc(-c3ccc4c(c3)OCO4)o2)c1 [Compound 36, {3-[(5-Benzo[1,3]dioxol-5-yl-furan-2-carbonyl)-amino]-phenyl}-acetic acid]
Human EP3 receptor
  Ki: > 1e-05 M
Human EP4 receptor
  Ki: > 1e-05 M
Human EP2 receptor
  Ki: < 1e-06 M
[1]
  EC50: < 0.1 µM
  activity (EP2 part): EP2 agonist

## O=C(O)Cc1cccc(NC(=O)c2ccc(-c3cccc(Cl)c3Cl)o2)c1 [Compound 37, (3-{[5-(2,3-Dichloro-phenyl)-furan-2-carbonyl]-amino}-phenyl)-acetic acid]
Human EP3 receptor
  Ki: > 1e-05 M
Human EP4 receptor
  Ki: > 1e-05 M
Human EP2 receptor
  Ki: < 1e-06 M
[1]
  EC50: < 1 µM
  activity (EP2 part): EP2 agonist

## O=C(O)Cc1cccc(NC(=O)c2ccc(-c3cccc(Cl)c3)o2)c1 [Compound 39, (3-{[5-(3-Chloro-phenyl)-furan-2-carbonyl]-amino}-phenyl)-acetic acid]
Human EP3 receptor
  Ki: > 1e-05 M
Human EP4 receptor
  Ki: > 1e-05 M
Human EP2 receptor
  Ki: < 1e-07 M
[1]
  EC50: < 0.1 µM
  activity (EP2 part): EP2 agonist

## O=C(O)Cc1cccc(NC(=O)c2ccc(-c3ccc(Cl)cc3)o2)c1 [Compound 40, (3-{[5-(4-Chloro-phenyl)-furan-2-carbonyl]-amino}-phenyl)-acetic acid]
Human EP3 receptor
  Ki: > 1e-05 M
Human EP4 receptor
  Ki: > 1e-05 M
Human EP2 receptor
  Ki: < 1e-06 M
[1]
  EC50: < 0.1 µM
  activity (EP2 part): EP2 agonist

## O=C(O)/C=C/c1cccc(SCc2csc(-c3ccccc3)n2)c1 [Compound 122, 3-[3-(2-Phenyl-thiazol-4-ylmethylsulfanyl)-phenyl]-acrylic acid]
Human EP3 receptor
  Ki: > 1e-05 M
Human EP4 receptor
  Ki: < 1e-06 M
Human EP2 receptor
  Ki: < 1e-07 M

## O=C(O)/C=C/c1cccc(NC(=O)c2ccc(C34CC5CC(CC(C5)C3)C4)o2)c1 [Compound 123, 3-{3-[(5-Adamantan-1-yl-furan-2-carbonyl)-amino]-phenyl}-acrylic acid]
Human EP3 receptor
  Ki: > 1e-05 M
Human EP4 receptor
  Ki: > 1e-05 M
Human EP2 receptor
  Ki: < 1e-06 M

## O=C(Nc1cccc(OCc2nnn[nH]2)c1)c1cccc(-c2ccccc2)n1 [Compound 174, 6-Phenyl-pyridine-2-carboxylic acid [3-(1H-tetrazol-5-ylmethoxy)-phenyl]-amide]
Human EP3 receptor
  Ki: > 1e-05 M
Human EP4 receptor
  Ki: < 1e-06 M
Human EP2 receptor
  Ki: < 1e-07 M

## O=C(Nc1cccc(/C=C/c2nnn[nH]2)c1)c1cccc(-c2ccccc2)n1 [Compound 175, 6-Phenyl-pyridine-2-carboxylic acid {3-[2-(1H-tetrazol-5-yl)-vinyl]phenyl}-amide]
Human EP3 receptor
  Ki: > 1e-05 M
Human EP4 receptor
  Ki: < 1e-07 M
Human EP2 receptor
  Ki: < 1e-07 M

## O=C(Nc1cccc(/C=C/c2nnn[nH]2)c1)c1cc(-c2ccccc2)ccc1F [Compound 176, 4-Fluoro-biphenyl-3-carboxylic acid {3-[2-(1H-tetrazol-5-yl)-vinyl]phenyl}-amide]
Human EP3 receptor
  Ki: > 1e-05 M
Human EP4 receptor
  Ki: > 1e-05 M
Human EP2 receptor
  Ki: < 1e-07 M
